Test results taken from ChEMBL document CHEMBL1782028, “Evaluation of structurally diverse neuronal nicotinic receptor ligands for selectivity at the alpha6( *) subtype” (Bioorg Med Chem Lett, 2009).

Assays:
[1] = biological target: T1, Neuronal acetylcholine receptor subunit alpha-6/beta-2 (Mus musculus, UniProt Q9ERK7+Q9R0W9); experiment: Displacement of [125I]-alpha-Conotoxin MII from alpha6beta2* nAChR in mouse olfactory tubercles, striatum and superior coliculus; type: tissue-based, Olfactory tubercle
[2] = biological target: Neuronal acetylcholine receptor subunit alpha-7 (Mus musculus, UniProt P49582); experiment: Displacement of [125I]alpha-bungarotoxin from alpha7 nAChR in C57BL/6J mouse hippocampal membrane; type: tissue-based, Hippocampus
[3] = biological target: T2, Nicotinic acetylcholine receptor alpha-4/beta-2 (Mus musculus, UniProt Q8R493+Q9ERK7); experiment: Activity at alpha4beta2*nAChR in mouse striatal synaptosomes assessed as alpha-conotoxic MII-resistant DA release; type: subcellular, Brain
[4] = biological target: Neuronal acetylcholine receptor subunit alpha-4/alpha-6/beta-2/beta-3 (Mus musculus, UniProt O70174+Q8BMN3+Q9ERK7+Q9R0W9); experiment: (§1) Activity at alpha6alpha4beta3beta2 nAChR in mouse striatal synaptosomes assessed as alpha-conotoxic […] DA release; type: subcellular, Brain
[5] = biological target: Nicotinic acetylcholine receptor alpha-4/beta-2 (Mus musculus) (UniProt Q9ERK7+Q8R493); experiment: Activity at alpha4beta2*nAChR in mouse striatal synaptosomes assessed as alpha-conotoxic MII-resistant DA release relative to control; type: subcellular; settings: Brain
[6] = Selectivity ratio, ratio of EC50 for alpha3beta4* nAChR in mouse to EC50 for alpha4beta2*nAChR in mouse
[7] = biological target: T3, Neuronal acetylcholine receptor subunit alpha-3/beta-4 (Mus musculus, UniProt Q8R493+Q8R4G9); experiment: Activity at alpha3beta4* nAChR in mouse interpeduncular nucleus assessed as [3H]ACh release by scintillation counting; type: tissue-based
[8] = biological target: Neuronal acetylcholine receptor subunit alpha-4/alpha-6/beta-2/beta-3 (Mus musculus) (UniProt Q9ERK7+O70174+Q9R0W9+Q8BMN3); experiment: Activity at alpha6alpha4beta3beta2 nAChR in mouse striatal synaptosomes assessed as alpha-conotoxic […] DA release relative to control; type: subcellular; settings: Brain
[9] = biological target: T2, Nicotinic acetylcholine receptor alpha-4/beta-2; experiment: Displacement of [125I]epibatidine from alpha4beta2* nAChR in C57BL/6J mouse cortical membrane by gamma counting; type: cell membranes
[10] = Selectivity ratio, ratio of EC50 for alpha3beta4* nAChR in mouse to EC50 for alpha6beta2*nAChR in mouse
[11] = biological target: T3, Neuronal acetylcholine receptor subunit alpha-3/beta-4; experiment: Activity at alpha3beta4* nAChR in mouse interpeduncular nucleus assessed as [3H]ACh release by scintillation counting relative to control; type: tissue-based
[12] = biological target: T1, Neuronal acetylcholine receptor subunit alpha-6/beta-2; experiment: Inhibition of mouse alpha6alpha4beta3beta2 nAChR; type: protein-complex assay
[13] = Selectivity ratio, ratio of EC50 for alpha3beta4* nAChR in mouse to Ki for alpha6beta2*nAChR in mouse
[14] = Selectivity ratio, ratio of EC50 for alpha3beta4* nAChR in mouse to Ki for alpha4beta2*nAChR in mouse
[15] = biological target: Neuronal acetylcholine receptor subunit alpha-4/alpha-6/beta-2/beta-3 (Mus musculus, UniProt Q9ERK7+O70174+Q9R0W9+Q8BMN3); experiment: as §1; type: subcellular, Brain
Chain of Neuronal acetylcholine receptor subunit alpha-4/alpha-6/beta-2/beta-3 (Mus musculus, UniProt Q9ERK7+O70174+Q9R0W9+Q8BMN3) (Q9ERK7 whole entry): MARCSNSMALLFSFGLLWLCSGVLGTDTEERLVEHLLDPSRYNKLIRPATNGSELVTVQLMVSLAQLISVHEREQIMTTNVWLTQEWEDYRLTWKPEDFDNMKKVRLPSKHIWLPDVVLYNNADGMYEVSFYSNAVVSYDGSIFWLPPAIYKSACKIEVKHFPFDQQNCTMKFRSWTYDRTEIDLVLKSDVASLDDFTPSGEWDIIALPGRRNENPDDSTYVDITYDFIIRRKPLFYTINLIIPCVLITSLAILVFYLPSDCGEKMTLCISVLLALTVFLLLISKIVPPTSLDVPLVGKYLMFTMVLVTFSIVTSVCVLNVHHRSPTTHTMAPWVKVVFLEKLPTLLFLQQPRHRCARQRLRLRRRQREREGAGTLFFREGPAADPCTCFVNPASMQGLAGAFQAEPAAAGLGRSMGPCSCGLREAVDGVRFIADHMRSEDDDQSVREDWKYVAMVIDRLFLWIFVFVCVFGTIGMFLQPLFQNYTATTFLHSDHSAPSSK
Chain of Neuronal acetylcholine receptor subunit alpha-4/alpha-6/beta-2/beta-3 (Mus musculus, UniProt Q9ERK7+O70174+Q9R0W9+Q8BMN3) (O70174 whole entry): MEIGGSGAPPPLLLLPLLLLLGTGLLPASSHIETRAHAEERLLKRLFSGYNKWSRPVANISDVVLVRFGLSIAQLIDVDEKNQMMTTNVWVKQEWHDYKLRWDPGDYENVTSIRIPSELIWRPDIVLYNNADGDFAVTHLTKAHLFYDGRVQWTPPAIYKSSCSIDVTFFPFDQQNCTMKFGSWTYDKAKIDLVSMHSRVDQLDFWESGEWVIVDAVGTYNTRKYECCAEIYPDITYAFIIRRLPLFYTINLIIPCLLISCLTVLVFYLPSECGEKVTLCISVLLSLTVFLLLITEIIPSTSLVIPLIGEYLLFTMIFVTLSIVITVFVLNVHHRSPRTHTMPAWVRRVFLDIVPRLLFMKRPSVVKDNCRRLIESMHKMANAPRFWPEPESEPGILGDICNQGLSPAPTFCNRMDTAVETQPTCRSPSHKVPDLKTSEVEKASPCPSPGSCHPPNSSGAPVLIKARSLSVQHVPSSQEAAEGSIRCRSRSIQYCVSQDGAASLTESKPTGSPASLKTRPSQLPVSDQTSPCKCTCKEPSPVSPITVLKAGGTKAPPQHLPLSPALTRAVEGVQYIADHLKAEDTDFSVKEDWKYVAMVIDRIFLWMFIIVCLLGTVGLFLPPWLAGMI
Chain of Neuronal acetylcholine receptor subunit alpha-4/alpha-6/beta-2/beta-3 (Mus musculus, UniProt Q9ERK7+O70174+Q9R0W9+Q8BMN3) (Q9R0W9 whole entry): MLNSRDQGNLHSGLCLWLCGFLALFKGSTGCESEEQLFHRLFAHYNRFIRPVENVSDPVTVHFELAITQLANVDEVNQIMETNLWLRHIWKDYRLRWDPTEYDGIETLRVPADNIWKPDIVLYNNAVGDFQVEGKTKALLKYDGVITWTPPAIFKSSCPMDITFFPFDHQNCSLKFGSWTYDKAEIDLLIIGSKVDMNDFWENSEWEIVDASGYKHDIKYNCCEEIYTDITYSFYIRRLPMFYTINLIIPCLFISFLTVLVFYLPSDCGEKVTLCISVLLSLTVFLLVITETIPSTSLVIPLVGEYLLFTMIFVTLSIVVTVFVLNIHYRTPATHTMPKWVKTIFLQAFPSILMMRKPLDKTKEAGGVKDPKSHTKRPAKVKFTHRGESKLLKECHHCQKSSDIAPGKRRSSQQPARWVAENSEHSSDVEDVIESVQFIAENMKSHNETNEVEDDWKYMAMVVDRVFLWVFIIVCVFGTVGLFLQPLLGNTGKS
Chain of Neuronal acetylcholine receptor subunit alpha-4/alpha-6/beta-2/beta-3 (Mus musculus, UniProt Q9ERK7+O70174+Q9R0W9+Q8BMN3) (Q8BMN3 whole entry): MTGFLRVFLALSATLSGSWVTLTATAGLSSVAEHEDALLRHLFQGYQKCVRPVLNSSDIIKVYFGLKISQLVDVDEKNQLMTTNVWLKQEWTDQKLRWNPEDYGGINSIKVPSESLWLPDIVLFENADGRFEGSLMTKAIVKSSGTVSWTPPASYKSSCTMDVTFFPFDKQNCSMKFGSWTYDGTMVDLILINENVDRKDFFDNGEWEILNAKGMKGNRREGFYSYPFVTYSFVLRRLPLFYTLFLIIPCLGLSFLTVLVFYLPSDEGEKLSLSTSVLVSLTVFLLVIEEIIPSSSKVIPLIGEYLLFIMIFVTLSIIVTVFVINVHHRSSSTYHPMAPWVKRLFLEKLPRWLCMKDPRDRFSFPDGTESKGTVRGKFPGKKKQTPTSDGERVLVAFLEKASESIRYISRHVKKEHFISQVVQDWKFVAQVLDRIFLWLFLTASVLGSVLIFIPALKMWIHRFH

Chain of Neuronal acetylcholine receptor subunit alpha-4/alpha-6/beta-2/beta-3 (Mus musculus, UniProt O70174+Q8BMN3+Q9ERK7+Q9R0W9) (Q9ERK7 whole entry): as the sequence (Q9ERK7 whole entry) above
Chain of Neuronal acetylcholine receptor subunit alpha-4/alpha-6/beta-2/beta-3 (Mus musculus, UniProt O70174+Q8BMN3+Q9ERK7+Q9R0W9) (O70174 whole entry): as the sequence (O70174 whole entry) above
Chain of Neuronal acetylcholine receptor subunit alpha-4/alpha-6/beta-2/beta-3 (Mus musculus, UniProt O70174+Q8BMN3+Q9ERK7+Q9R0W9) (Q9R0W9 whole entry): as the sequence (Q9R0W9 whole entry) above
Chain of Neuronal acetylcholine receptor subunit alpha-4/alpha-6/beta-2/beta-3 (Mus musculus, UniProt O70174+Q8BMN3+Q9ERK7+Q9R0W9) (Q8BMN3 whole entry): as the sequence (Q8BMN3 whole entry) above
T1 sequence (Q9ERK7 whole entry): as the sequence (Q9ERK7 whole entry) above
T1 sequence (Q9R0W9 whole entry): as the sequence (Q9R0W9 whole entry) above
T2 sequence (Q9ERK7 whole entry): as the sequence (Q9ERK7 whole entry) above
T2 sequence (Q8R493 whole entry): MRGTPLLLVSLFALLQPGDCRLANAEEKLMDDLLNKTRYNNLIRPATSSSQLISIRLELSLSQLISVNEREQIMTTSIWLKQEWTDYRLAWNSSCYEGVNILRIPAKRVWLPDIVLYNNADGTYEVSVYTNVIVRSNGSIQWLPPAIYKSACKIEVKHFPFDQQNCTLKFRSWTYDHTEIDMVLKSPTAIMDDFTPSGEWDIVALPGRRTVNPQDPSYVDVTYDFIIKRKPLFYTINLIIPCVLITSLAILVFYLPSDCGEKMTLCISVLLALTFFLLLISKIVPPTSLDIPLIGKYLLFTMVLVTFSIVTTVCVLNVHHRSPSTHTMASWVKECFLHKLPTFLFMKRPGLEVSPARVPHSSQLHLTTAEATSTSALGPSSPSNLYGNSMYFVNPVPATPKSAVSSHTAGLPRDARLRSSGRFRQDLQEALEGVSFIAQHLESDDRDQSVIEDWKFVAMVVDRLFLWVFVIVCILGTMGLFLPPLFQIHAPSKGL
T3 sequence (Q8R493 whole entry): as above
T3 sequence (Q8R4G9 whole entry): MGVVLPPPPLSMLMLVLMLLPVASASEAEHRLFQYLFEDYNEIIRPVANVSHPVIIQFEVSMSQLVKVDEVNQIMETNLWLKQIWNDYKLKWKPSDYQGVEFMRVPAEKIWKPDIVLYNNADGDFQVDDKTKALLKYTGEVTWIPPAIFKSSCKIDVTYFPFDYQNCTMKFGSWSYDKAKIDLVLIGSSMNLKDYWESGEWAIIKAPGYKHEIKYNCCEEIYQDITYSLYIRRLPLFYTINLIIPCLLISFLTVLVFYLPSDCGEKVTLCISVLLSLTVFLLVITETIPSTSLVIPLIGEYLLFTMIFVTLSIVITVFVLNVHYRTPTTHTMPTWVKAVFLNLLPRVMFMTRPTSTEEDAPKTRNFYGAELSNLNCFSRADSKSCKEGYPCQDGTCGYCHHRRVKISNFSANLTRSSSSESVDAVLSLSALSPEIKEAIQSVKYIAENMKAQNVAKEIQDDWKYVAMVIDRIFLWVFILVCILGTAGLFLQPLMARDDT
Chain of Neuronal acetylcholine receptor subunit alpha-7 (P49582 whole entry): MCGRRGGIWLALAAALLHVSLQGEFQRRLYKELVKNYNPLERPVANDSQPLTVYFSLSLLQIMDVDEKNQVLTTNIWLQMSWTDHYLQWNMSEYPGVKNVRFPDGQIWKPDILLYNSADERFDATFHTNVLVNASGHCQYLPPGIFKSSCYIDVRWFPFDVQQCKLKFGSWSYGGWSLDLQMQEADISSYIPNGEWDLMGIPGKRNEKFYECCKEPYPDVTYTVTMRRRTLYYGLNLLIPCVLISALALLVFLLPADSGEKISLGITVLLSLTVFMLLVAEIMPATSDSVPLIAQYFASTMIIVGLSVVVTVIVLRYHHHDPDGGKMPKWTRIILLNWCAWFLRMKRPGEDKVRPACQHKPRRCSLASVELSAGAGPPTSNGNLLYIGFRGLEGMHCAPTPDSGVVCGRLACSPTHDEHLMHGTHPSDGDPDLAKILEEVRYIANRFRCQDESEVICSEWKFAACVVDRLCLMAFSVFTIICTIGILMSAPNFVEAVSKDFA

| Compound | Ki [1] [nM] | Ki [2] [nM] | EC50 [3] [nM] | EC50 [4] [nM] | Emax [5] [%] | Ratio EC50 [6] | Emax [7] [%] | Emax [8] [%] | Ki [9] [nM] | Ratio EC50 [10] | EC50 [11] [nM] | Ki [12] [nM] | Imax [5] [%] | Ratio [13] | Imax [8] [%] | Ratio [14] | EC50 [15] |
| --- | --- | --- | --- | --- | --- | --- | --- | --- | --- | --- | --- | --- | --- | --- | --- | --- | --- |
| C(=C\[C@@H]1CCNC1)/c1cccnc1.O=C(O)C(F)(F)F | 184 | 3160 | 4400 | 800 | 109 | 3.6 | 58 | 66 | 11 | 20 | 16000 | – | – | – | – | – | – |
| C(#C[C@H]1CCCN1)c1cncnc1 | 340 | 5770 | 3200 | 1200 | 64 | – | 74 | 134 | 30 | – | 34000 | – | – | – | – | – | – |
| C(#C[C@H]1CCCN1)c1cccnc1.O=C(O)[C@@H](O)[C@H](O)[C@H](O)[C@@H](O)C(=O)O | 242 | 733 | 13000 | 700 | 120 | 0.4 | 81 | 42 | 20 | 8 | 5600 | – | – | – | – | – | – |
| CNCC/C=C/c1cncnc1.O=C(O)[C@@H](O)[C@H](O)[C@H](O)[C@@H](O)C(=O)O | 1060 | > 10000 | 5900 | 37000 | 73 | 1.6 | 4 | 80 | 69 | 0.26 | 9500 | – | – | – | – | – | – |
| O=C(O)C(F)(F)F.c1ncc(C2CC3CCN2CC3)cn1 (stereo not given) | 8 | 1100 | 450 | 90 | 43 | 5.3 | 95 | 104 | 1.8 | 26.7 | 2400 | – | – | – | – | – | – |
| CN1C2C=C(c3cncnc3)CC1CC2.O=C(O)C(F)(F)F (stereo not given) | 17 | 9100 | 1800 | 100 | 45 | 22.7 | 35 | 77 | 1.2 | 410 | 41000 | – | – | – | – | – | – |
| O=C(O)C(F)(F)F.c1ncc(CC2CC3CCN2CC3)cn1 (stereo not given) | 115 | 2590 | – | – | – | – | 106 | – | 59 | – | 28000 | 2500 | 92 | 11.2 | 91 | 87.5 | – |
| CN1C2C=C(c3cccnc3)CC1CC2.Cl.Cl (stereo not given) | 55 | 2110 | 3400 | 200 | 75 | 6.2 | 71 | 50 | 9.8 | 105 | 21000 | – | – | – | – | – | – |
| c1cncc(C2CC3CCN2CC3)c1 (stereo not given) | – | – | – | – | 29 | – | – | – | – | – | – | – | – | – | – | – | – |
| c1cncc(CC2CC3CCN2CC3)c1 (stereo not given) | – | – | – | – | – | – | – | – | – | – | – | – | – | – | 96 | – | – |
| C(=C\[C@@H]1CCNC1)/c1cncnc1.O=C(O)[C@@H](O)[C@H](O)[C@H](O)[C@@H](O)C(=O)O | 325 | > 10000 | 19000 | 530 | 133 | 8.5 | 97 | 48 | 24 | 304 | 161000 | – | – | – | – | – | – |
| C(#C[C@H]1CCCN1)c1cncnc1.O=C(O)[C@@H](O)[C@H](O)[C@H](O)[C@@H](O)C(=O)O | – | – | – | – | – | 10.6 | – | – | – | 28 | – | – | – | – | – | – | – |
| CNCC/C=C/c1cccnc1.O=C(O)[C@@H](O)[C@H](O)[C@H](O)[C@@H](O)C(=O)O | 1550 | > 10000 | 8300 | – | 122 | 26 | 45 | 0 | 25 | – | 218000 | – | – | – | – | – | Not Active |
